Here are results for eleven compounds from patent publication US11834453B2, “Substituted pyrimido[5,4-d]pyrimidines as HER2 inhibitors” (Array BioPharma Inc., priority 2020, dated 2023).

The target of series [1] is ErbB2 insYVMA (HER2-YVMA, SEQ ID NO: 2) (Homo sapiens, UniProt P04626, INS775YVMA/P1170A). The series can be described thus: biochemical. Conditions: ErbB2 insYVMA enzyme assay; for pIC50: read-out: Assay 1 IC50.
Series [2] concerns the target ErbB2 WT (Homo sapiens (Human), UniProt P04626). Put plainly: ErbB enzyme assay (CisBio HTRF KinEASE-TK), Assay 2. The format is biochemical. In outline: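 ErbB2 phosphorylates 250 nM biotin-TK substrate at 1 mM ATP in 25 mM HEPES pH 7.4, 10 mM MgCl2, 0.01% Triton X-100 and 2% DMSO, for 30 min at 22 °C. Product is detected by HTRF with Sa-XL665 and TK-Ab-Cryptate. Percent of control is set by DMSO-only wells and pre-quenched wells.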
For orientation: In TR-FRET formats the signal depends on donor and acceptor labels being close together.

For series [3], the target named is EGFR (Homo sapiens (Human), UniProt P00533). Put plainly: ErbB enzyme assay (CisBio HTRF KinEASE-TK), Assay 3. It counts as biochemical. In short, it runs like this: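 HTRF KinEASE-TK assay: kinase with 250 nM biotinylated TK-substrate and 1 mM ATP in 25 mM HEPES pH 7.4, 10 mM MgCl2, 0.01% Triton X-100, 2% DMSO, 30 min at 22 °C. Quenched with Sa-XL665/TK-Ab-Cryptate, read after 1 h. IC50 from 4-parameter fit of percent of control.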

Series [4] concerns the target ErbB2 with Exon 20 YVMA insertion (HER2-YVMA) (Homo sapiens (Human), UniProt P04626, INS775YVMA). The series can be described thus: Cellular phosphorylation assay, constitutive ErbB2 phosphorylation (Y1196) in engineered NIH 3T3 cells, Assay 4. It counts as cell-based. In short, it runs like this:
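Engineered NIH 3T3 cells expressing HER2-YVMA treated with compounds 1 h at 37 °C, then formaldehyde-fixed and methanol-permeabilized. pErbB2 Y1196 detected by in-cell infrared immunofluorescence, normalized to GAPDH. IC50 from the normalized curves.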

The target of series [5] is T1, EGFR wild type (EGFR WT) (Homo sapiens (Human), UniProt P00533). Put plainly: Cellular phosphorylation assay, EGF-stimulated EGFR phosphorylation in engineered NIH 3T3 cells, Phospho-EGFR DuoSet IC ELISA, Assay 5. The format is cell-based. In outline: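 NIH 3T3 cells expressing EGFR WT (20,000/well, attached overnight) were exposed to serially diluted compound for 1 h at 37 °C, then stimulated with 100 ng/ml rEGF for 10 min. Phospho-EGFR in lysates measured by sandwich ELISA optical density; IC50 from curves.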
A general note: ELISA stands for enzyme-linked immunosorbent assay.

The target of series [6] is T2, MDR1 (P-gp) (Homo sapiens (Human), UniProt P08183). To be noted: dog, MDCK-MDR1, 2 h, 1 μM.
T2 sequence (P08183 whole entry): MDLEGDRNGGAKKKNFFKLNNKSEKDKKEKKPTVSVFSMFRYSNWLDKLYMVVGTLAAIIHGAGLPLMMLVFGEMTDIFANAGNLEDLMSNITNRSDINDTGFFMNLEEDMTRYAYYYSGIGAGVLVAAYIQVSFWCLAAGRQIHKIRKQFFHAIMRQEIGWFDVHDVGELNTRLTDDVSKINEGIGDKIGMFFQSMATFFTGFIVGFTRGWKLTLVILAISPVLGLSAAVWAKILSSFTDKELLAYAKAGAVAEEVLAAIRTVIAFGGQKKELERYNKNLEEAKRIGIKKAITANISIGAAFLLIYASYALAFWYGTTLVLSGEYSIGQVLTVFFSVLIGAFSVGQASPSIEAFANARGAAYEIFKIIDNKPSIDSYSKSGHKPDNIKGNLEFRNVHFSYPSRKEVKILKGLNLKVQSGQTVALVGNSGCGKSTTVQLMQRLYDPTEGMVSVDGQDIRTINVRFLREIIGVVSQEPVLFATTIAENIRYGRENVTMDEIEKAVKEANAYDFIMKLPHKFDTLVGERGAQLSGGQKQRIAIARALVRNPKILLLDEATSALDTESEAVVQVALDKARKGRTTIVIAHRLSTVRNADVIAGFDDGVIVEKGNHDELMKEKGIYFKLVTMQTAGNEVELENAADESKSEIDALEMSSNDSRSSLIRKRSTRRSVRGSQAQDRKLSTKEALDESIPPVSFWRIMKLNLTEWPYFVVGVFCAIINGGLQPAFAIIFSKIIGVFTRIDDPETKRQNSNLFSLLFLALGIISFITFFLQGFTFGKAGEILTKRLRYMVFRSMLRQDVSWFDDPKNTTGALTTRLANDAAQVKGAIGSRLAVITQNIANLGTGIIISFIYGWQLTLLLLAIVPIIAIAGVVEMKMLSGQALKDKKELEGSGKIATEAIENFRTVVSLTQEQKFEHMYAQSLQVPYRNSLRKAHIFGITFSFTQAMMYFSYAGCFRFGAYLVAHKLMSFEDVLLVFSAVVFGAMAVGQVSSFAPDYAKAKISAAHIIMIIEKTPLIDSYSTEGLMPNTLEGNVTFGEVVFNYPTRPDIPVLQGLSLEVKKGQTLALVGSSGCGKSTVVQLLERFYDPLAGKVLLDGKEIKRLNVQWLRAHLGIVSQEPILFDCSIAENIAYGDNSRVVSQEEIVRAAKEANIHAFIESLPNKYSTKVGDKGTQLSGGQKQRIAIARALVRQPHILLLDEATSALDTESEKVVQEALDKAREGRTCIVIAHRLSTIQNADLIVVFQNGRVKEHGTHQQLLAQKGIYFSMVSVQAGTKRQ
Series [7] concerns the target T3, BCRP (Homo sapiens (Human), UniProt Q9UNQ0). Conditions: dog, 2 h, 1 μM.
Procedure: (§1) BCRP transfected MDCKII cells (Assay 8) and BCRP transfected MDCKII canine Mdr1 knockout cells (Assay 9) were cultured and plated according to manufacturer's recommendations.
(§2) Both positive and negative controls were used to assess functionality of P-gp or BCRP efflux in the assays. Stock solutions for assay controls and the test article were prepared in DMSO for final test concentration of 1 μM. Final organic concentration in the assay was 1%. All dosing solutions contained 10 μM lucifer yellow to monitor MDCKII cell monolayer integrity.
(§3) For the apical to basolateral determination (A to B), 75 μL of the test article in transport buffer were added to the apical side of the individual transwells and 250 μL of basolateral media, without compound or lucifer yellow, were added to each well. For the basolateral to apical determination (B to A), 250 μL of test article in transport buffer were added to each well and 75 μL transport buffer, without compound or lucifer yellow, were added to each transwell. All tests were performed in triplicate, and each compound was tested for both apical to basolateral and basolateral to apical transport. The plates were incubated for 2 hours on a Lab-Line Instruments Titer Orbital Shaker (VWR, West Chester, PA) at 50 rpm and 37° C. with 5% CO2. All culture plates were removed from the incubator, 50 μL of media were removed from the apical and basolateral portion of each well, and added to 150 μL of 1 μM labetalol in 2:1 acetonitrile (ACN): H2O, v/v.
(§4) The plates were read using a Molecular Devices (Sunnyvale, CA) Gemini Fluorometer to evaluate the lucifer yellow concentrations at excitation/emission wavelengths of 425/535 nm. […] The plates were sealed, and the contents of each well analyzed by LC MS/MS. The compound concentrations were determined from the ratio of the peak areas of the compound to the internal standard (labetalol) in comparison to the dosing solution.
(§5) A MDS Sciex API 4000 (Applied Biosystems, Foster City, CA) mass spectrometer was used for detection of the analytes in the ion spray positive mode. Analyte responses were measured by multiple reaction monitoring (“MRM”) of transitions unique to each compound (the protonated precursor ion and selected product ions for each test article and m/z 329 to m/z 162 for labetalol, the internal standard.
(§6) The total run time, including re-equilibration, for a single injection was 1.2 minutes. […] The total run time, including re-equilibration, for a single injection was 0.61 minutes.
(§7) An efflux ratio is calculated from the mean apical to basolateral (A-B) Papp data and basolateral to apical (B-A) Papp data: Efflux ratio=Papp(B−A)/Papp(A−B)
For series [8], the target named is T2, MDR1 (P-gp). To be noted: pig, LLC-PK1, 2 h, 1 μM.
Series [9] deals with T1, EGFR wild type (EGFR WT). Put plainly: Cellular phosphorylation assay, EGF-stimulated EGFR phosphorylation (Y1068) in engineered NIH 3T3 cells, Odyssey imaging, Assay 5 (footnote 1). The format is cell-based. Conditions: values marked with footnote 1. As for the experimental part:
NIH 3T3 cells were engineered to express ErbB2 with Exon 20 YVMA insertion (HER2-YVMA (SEQ ID NO: 2); Assay 4) or EGFR wild type (EGFR WT; Assay 5, footnote 1) with constructs obtained from GenScript and grown in DMEM supplemented with 10% fetal bovine serum and 15 μg/ml blasticidin. Cells were plated in 96-well plates at 40,000 or 45,000 cells/well for HER2-YVMA (SEQ ID NO: 2) and EGFR WT assays, respectively, and allowed to attach overnight at 37° C./5% CO2. Serially diluted compounds were added to the plates for 1 hour at 37° C./5% CO2. EGFR WT cells were stimulated with 100 ng/ml rEGF for an additional 10 minutes at 37° C./5% CO2. After compound incubation, medium was removed from the cells, which were then fixed in 3.7% formaldehyde in PBS at room temperature for 20 minutes. Following a wash with PBS, cells were permeabilized with 100% methanol at room temperature for 10 minutes. Cells were then washed with PBS/0.05% Tween-20 and blocked with Odyssey blocking buffer (LI-COR Biosciences) for at least 1 hour at room temperature. Antibodies to phosphorylated ErbB2 (Y1196, Cell Signaling #6942) or phosphorylated EGFR (Y1068, Cell Signaling #3777) and GAPDH (Millipore #MAB374) were added to the cells in blocking buffer containing 0.05% azide and incubated overnight at 4° C. After washing with PBS/0.05° i° Tween-20, the cells were incubated with fluorescently labeled secondary anti-rabbit antibody (LiCOR, IRDye 800CW #926-32211) and anti-mouse antibody (Molecular Probes, Alexa Fluor 680 #A21058) for 1 hour at room temperature in the dark. Cells were then washed and analyzed for fluorescence at both wavelengths using the Odyssey Infrared Imaging System (LI-COR Biosciences). Phosphorylated ErbB2 and EGFR signal was normalized to GAPDH signal to generate curves and calculate IC50 values.

For series [10], the target named is T2, MDR1 (P-gp). Put plainly: MDR1 transfected LLC-PK1 permeability/efflux, Assay 6. Conditions: pig, LLC-PK1, Assay 6 Pe Ratio, efflux ratio Papp(B-A)/Papp(A-B), MDR1 transfected LLC-PK1.
Series [11] concerns the target T2, MDR1 (P-gp). The series can be described thus: MDR1 transfected MDCKII canine Mdr1 knockout permeability/efflux, Assay 7. To be noted: dog, MDCK-MDR1.
Series [12] concerns the target T3, BCRP. The series can be described thus: BCRP transfected MDCKII permeability/efflux, Assay 8. To be noted: dog, efflux ratio Papp(B-A)/Papp(A-B), read-out: Assay 8 Pe Ratio. The format is in vitro ADME.
Procedure: as §1, §2, §3, §4, §5, §6, §7

Structures are written as SMILES. pIC50: −log10 of the molar value. Read-outs that look alike come from different tables or passages of the source.

Sequence of ErbB2 insYVMA (HER2-YVMA, SEQ ID NO: 2) (P04626 with tags, fused parts or gaps INS775YVMA/P1170A limits assumed): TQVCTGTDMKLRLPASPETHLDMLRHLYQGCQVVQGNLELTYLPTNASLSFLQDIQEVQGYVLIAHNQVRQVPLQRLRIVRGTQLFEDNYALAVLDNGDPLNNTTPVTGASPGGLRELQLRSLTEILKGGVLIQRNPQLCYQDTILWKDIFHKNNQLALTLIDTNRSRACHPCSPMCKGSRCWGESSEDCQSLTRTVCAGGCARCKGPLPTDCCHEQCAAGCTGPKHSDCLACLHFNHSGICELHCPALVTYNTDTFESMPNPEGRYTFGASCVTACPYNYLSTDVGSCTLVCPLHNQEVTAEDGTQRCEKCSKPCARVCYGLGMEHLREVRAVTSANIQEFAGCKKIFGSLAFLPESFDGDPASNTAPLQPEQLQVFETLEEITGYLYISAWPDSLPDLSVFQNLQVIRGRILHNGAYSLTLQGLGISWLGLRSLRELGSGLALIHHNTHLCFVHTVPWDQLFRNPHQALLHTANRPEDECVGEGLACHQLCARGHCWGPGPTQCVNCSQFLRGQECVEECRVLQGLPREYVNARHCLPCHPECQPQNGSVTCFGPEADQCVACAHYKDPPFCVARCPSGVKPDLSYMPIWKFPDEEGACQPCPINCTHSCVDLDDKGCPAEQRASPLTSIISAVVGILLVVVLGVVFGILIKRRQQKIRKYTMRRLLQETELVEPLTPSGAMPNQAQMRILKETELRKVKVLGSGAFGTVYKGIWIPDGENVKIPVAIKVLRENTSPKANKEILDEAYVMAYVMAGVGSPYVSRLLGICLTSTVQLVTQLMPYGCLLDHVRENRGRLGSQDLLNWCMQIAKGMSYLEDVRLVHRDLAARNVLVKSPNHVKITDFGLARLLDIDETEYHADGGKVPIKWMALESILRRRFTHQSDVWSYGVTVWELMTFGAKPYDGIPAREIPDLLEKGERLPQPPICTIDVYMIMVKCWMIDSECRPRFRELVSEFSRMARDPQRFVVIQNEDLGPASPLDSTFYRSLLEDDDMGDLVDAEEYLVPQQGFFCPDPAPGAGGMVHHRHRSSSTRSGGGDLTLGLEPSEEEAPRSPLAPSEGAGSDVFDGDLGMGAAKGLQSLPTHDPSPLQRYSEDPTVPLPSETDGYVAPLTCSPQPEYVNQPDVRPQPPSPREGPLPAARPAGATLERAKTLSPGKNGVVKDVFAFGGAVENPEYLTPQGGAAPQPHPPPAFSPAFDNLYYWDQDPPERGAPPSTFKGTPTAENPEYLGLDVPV
Sequence of ErbB2 with Exon 20 YVMA insertion (HER2-YVMA) (P04626 other isoform, or with tags, fused parts or gaps ins YVMA behind 775): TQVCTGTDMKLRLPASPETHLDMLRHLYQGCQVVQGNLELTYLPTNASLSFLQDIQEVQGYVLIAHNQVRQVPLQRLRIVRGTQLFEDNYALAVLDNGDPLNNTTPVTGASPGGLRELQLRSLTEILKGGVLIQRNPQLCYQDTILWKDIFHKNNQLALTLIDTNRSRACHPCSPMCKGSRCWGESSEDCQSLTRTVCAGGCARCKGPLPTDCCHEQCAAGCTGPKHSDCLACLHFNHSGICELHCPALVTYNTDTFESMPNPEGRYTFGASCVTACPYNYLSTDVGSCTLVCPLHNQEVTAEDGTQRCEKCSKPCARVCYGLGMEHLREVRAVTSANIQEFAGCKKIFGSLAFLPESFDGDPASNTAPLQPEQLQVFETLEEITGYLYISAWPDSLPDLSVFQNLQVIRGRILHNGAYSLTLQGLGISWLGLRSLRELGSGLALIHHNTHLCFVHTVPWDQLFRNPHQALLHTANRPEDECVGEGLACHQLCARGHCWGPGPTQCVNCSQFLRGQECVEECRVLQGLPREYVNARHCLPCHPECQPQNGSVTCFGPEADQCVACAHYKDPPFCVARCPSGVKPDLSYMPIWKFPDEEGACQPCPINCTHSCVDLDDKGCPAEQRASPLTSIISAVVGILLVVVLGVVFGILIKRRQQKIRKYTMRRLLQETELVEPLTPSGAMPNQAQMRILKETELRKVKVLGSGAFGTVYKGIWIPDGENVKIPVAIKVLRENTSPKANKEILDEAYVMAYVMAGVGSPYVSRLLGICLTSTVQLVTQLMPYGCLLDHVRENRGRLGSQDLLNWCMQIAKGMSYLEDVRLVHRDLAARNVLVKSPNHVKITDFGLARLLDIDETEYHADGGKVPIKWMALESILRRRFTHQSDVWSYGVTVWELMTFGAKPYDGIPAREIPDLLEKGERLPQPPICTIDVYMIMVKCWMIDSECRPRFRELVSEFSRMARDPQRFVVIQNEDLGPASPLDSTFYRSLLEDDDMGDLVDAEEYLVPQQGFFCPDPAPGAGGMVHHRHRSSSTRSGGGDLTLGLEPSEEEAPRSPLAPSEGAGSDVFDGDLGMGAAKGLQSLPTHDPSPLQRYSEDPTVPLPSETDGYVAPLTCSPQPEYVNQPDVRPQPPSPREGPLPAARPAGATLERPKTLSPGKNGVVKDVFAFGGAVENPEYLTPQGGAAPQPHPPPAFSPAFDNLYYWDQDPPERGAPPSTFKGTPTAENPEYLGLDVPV
T3 sequence (Q9UNQ0 whole entry): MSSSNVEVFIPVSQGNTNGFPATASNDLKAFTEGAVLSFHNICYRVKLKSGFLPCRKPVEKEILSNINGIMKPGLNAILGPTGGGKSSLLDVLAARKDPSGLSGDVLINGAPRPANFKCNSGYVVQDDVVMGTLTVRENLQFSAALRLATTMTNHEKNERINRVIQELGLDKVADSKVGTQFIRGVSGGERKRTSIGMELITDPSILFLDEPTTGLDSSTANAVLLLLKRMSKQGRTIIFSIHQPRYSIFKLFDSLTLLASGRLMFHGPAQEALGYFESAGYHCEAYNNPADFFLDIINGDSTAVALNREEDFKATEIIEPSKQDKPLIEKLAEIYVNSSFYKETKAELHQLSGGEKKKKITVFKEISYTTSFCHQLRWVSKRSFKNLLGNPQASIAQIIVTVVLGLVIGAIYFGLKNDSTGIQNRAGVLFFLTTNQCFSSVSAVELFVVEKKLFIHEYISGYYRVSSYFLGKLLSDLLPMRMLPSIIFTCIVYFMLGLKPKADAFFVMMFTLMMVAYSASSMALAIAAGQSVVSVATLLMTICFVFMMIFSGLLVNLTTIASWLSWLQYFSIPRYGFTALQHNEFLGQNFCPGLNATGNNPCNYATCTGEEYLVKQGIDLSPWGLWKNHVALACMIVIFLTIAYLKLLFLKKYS

With `Cc1cc(Nc2ncnc3cnc(N4[C@H]5CC[C@@H]4[C@H](O)C5)nc23)ccc1Oc1ccc2c(c1)ncn2C` (racemic) [Example 104, ±(1R,2R,4S)-7-(8-((3-methyl-4-((1-methyl-1H-benzo[d]imidazol-5-yl)oxy)phenyl)amino)pyrimido[5,4-d]pyrimidin-2-yl)-7-azabicyclo[2.2.1]heptan-2-ol], the pIC50 (in general, the IC50 on a negative log10 scale, so that one unit is a factor of ten) was 7.73 in [1]; 7.74 in [2]; 5.33 in series [3]; 7.50 in series [4]; 5.30 in [5]. The “Assay 7 Pe Ratio” value in [6] is recorded as 1.4. Further, the “Assay 9 Pe Ratio” value in series [7] came out at 16.0.
As for `Cc1cc(Nc2ncnc3cnc(N4[C@H]5CC[C@@H]4[C@@H](O)C5)nc23)ccc1Oc1ccc2c(c1)ncn2C` (racemic) [Example 105, ±(1R,2S,4S)-7-(8-((3-methyl-4-((1-methyl-1H-benzo[d]imidazol-5-yl)oxy)phenyl)amino)pyrimido[5,4-d]pyrimidin-2-yl)-7-azabicyclo[2.2.1]heptan-2-ol], the pIC50 in [1] is 7.25; in series [2], 7.31; in [3], 5.00; in series [4] it was 7.41; in series [5], 5.30. Also, the “Assay 7 Pe Ratio” value in [6] was 2.0. The “Assay 9 Pe Ratio” value in series [7] is reported as 8.6.
As to `Cc1cc(Nc2ncnc3cnc(N4CCC45CCOC5)nc23)ccc1Oc1ccc2c(c1)ncn2C` (racemic) [Example 111, rac-(R)—N-(3-methyl-4-((1-methyl-1H-benzo[c]imidazol-5-yl)oxy)phenyl)-6-(6-oxa-1-azaspiro[3.4]octan-1-yl)pyrimido[5,4-d]pyrimidin-4-amine], the pIC50 in [1] was 7.55; in [2] it was 7.62; in series [3], 5.45; in series [4], 7.89; in [5] it was 5.30. In addition, the “Assay 6 Pe Ratio” value in series [8] was 1.3. In addition, the “Assay 7 Pe Ratio” value in series [6] was determined as 1.7. Moreover, the “Assay 9 Pe Ratio” value in [7] is given as 1.6.
Turning to `CSc1ncc2ncnc(Nc3ccc(Oc4ccc5csnc5c4)c(C)c3)c2n1` [Example 11, N-(4-(benzo[c]isothiazol-6-yloxy)-3-methylphenyl)-6-(methylthio)pyrimido[5,4-d]pyrimidin-4-amine 2,2,2-trifluoroacetate], the pIC50 is 7.26 in series [1]; 7.01 in series [2]; 6.03 in [3]; 7.02 in series [4]; 5.30 in series [9]. The efflux ratio at 2 h, 1 μM in series [10] and in series [11] was 0.7 each time.
`Cc1cc(Nc2ncnc3cnc(NC4CCC4)nc23)ccc1Oc1ccc2c(c1)ncn2C` [Example 14, N2-cyclobutyl-N8-(3-methyl-4-((1-methyl-1H-benzo[d]imidazol-5-yl)oxy)phenyl)pyrimido[5,4-d]pyrimidine-2,8-diamine]: the negative-log IC50 (pIC50) in series [1] is 7.25; in [2], 7.07; in [3], no more than 5.00; in series [4], 7.43; in series [5], no more than 5.30. The efflux ratio at 2 h, 1 μM in series [12] is 0.9; in series [10], 1.3.
For `Cc1cc(Nc2ncnc3cnc(NCC4CC4)nc23)ccc1Oc1ccc2c(c1)ncn2C` [Example 20, N2-(cyclopropylmethyl)-N8-(3-methyl-4-((1-methyl-1H-benzo[d]imidazol-5-yl)oxy)phenyl)pyrimido[5,4-d]pyrimidine-2,8-diamine], the pIC50 in series [1] was 7.18; in series [2], 6.88; in series [3], no more than 5.00; in series [4], 7.35; in series [5] it was no more than 5.30. Moreover, the efflux ratio at 2 h, 1 μM in series [12] was found to be 0.7; in series [10] it was 1.9.
Consider `Cc1cc(Nc2ncnc3cnc(N(C)C)nc23)ccc1Oc1ccc2csnc2c1` [Example 49, N8-(4-(benzo[c]isothiazol-6-yloxy)-3-methylphenyl)-N2,N2-dimethylpyrimido[5,4-d]pyrimidine-2,8-diamine 2,2,2-trifluoroacetate], for which the pIC50 was 7.26 in series [1]; 6.62 in [2]; 5.65 in [3]; 6.88 in [4]; no more than 5.30 in series [5]. For the same compound, the efflux ratio at 2 h, 1 μM in series [12] is 5.1; in series [10], 1.7.
As for `Cc1cc(Nc2ncnc3cnc(N4CCOCC4)nc23)ccc1Oc1ccc2scnc2c1.O=C(O)C(F)(F)F` [Example 82, N-(4-(benzo[d]thiazol-5-yloxy)-3-methylphenyl)-6-morpholinopyrimido[5,4-d]pyrimidin-4-amine 2,2,2-trifluoroacetate], the IC50 (in general, the concentration that gives 50% inhibition) in series [1] (Assay 1 IC50 (nM)) turned out to be 47 nM. The pIC50 in series [2] was 6.69; in [3] it was 5.91; in series [4] it was 7.26; in [5], no more than 5.30. In addition, the results for the efflux ratio at 2 h, 1 μM in series [12] and in series [10] were 1 and 1.3, respectively.
Consider `Cc1c(Oc2ccc3c(c2)ncn3C)ccc(Nc2ncnc3cnc(N4CCOCC4)nc23)c1F` [Example 263], for which the pIC50 in series [1] was 7.24; in series [2], 6.86; in series [3], no more than 5.00; in series [4], 7.79; in [5] it was no more than 5.30. Besides, the efflux ratio at 2 h, 1 μM was determined as 1.5 in series [12] and 0.9 in [10].
As to `Cc1cc(Nc2ncnc3cnc(NC4(C)CC4)nc23)ccc1Oc1ccc2c(c1)ncn2C` [Example 268], the negative-log IC50 (pIC50) in [1] was 7.09; in series [2], 7.03; in series [3], no more than 5.00; in [4] it was 7.41; in series [5], no more than 5.30. In addition, the efflux ratio at 2 h, 1 μM in series [12] was found to be 1.1; in series [10] it was 1.5.
For `Cc1cc(Nc2ncnc3cnc(N(C)C)nc23)ccc1Oc1ccc2scnc2c1` [Example 271], the pIC50 was 7.37 in [1]; 6.84 in series [2]; 5.90 in series [3]; 7.51 in [4]; 5.51 in series [5]. In addition, the efflux ratio at 2 h, 1 μM in series [12] came out at 0.9; in series [10] it was 1.8.
